# Measured values as given in US11534441B2, “MAP4K1 inhibitors” (Blueprint Medicines Corporation, priority 2020, dated 2022).
# Key:
# [1] = target: MAP4K1 (HPK1) (Homo sapiens (Human), UniProt Q92918); test: MAP4K1 (HPK1) biochemical enzymatic activity, electrophoretic mobility shift (EZReader 2), ATP at APPKM (26 μM)
# Procedure, shortened: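 Enzyme at 0.1-15 nM was incubated with 1.5 μM fluorescent peptide and ATP at the apparent Km (26 μM) in HEPES pH 7.5, MgCl2, DTT and Brij 35. The reaction ran at 25° C for 60-180 min with a 10-point, 4-fold compound series (1% DMSO) and was stopped with EDTA. Substrate and product peptides were resolved by microfluidic mobility shift, and their peak ratio gave activity.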
# [2] = tested on: expanded CD3+ T cells; test: T cell enhancement of cytokines: IL2 measurement (HTRF) in expanded CD3+ T cells stimulated with anti-CD3/anti-CD28; assay type: cell-based, human; conditions: IL-2 measurement
# Method: T cells are isolated from whole blood of healthy donors by immunomagnetic negative selection following manufacture's protocol (StemCell Technologies, human T cell isolation kit). Purity of isolated cells is assessed by flow cytometry and yields 95-98% CD3^+ T cells. For expansion of T cells, 1×10^6 cells/well are plated in serum free cell expansion media (ThermoFisher) containing 30 U of recombinant human IL2 (R&D) and stimulated with 25 ul of CD3/CD28 beads (Invitrogen) in 24 well plates for 3-4 days. T cells are then expanded in 175 cm flasks and maintained at a cell density of 1 to 2.5×10^6 cells/ml days by addition of ⅔ of fresh media every 2-3 days. After 10-14 days, cells are frozen in BamBanker freezing media (Thermo) and stored in liquid nitrogen.
# For IL2 measurement, expanded CD3^+ T cells are dispensed at 100K cells/well (cultured in X-VIVO 10 Serum-free media) and are stimulated with plate-bound anti-CD3 and soluble anti-CD28 in the presence of vehicle or compound of the disclosure at various concentrations for 24 h. As outlined in the manufacturer's protocol (Cisbio), 16 μL of conditioned media is transferred to a white 384-well low volume plate. Following a 24 h incubation with the anti-IL2 antibodies, the homogenous time resolved fluorescence (HTRF) is measured.
# [3] = Homo sapiens, T-cell, class designation
# [4] = Homo sapiens, T-cell, numeric value
# Chain of MAP4K1 (HPK1) (Q92918 whole entry): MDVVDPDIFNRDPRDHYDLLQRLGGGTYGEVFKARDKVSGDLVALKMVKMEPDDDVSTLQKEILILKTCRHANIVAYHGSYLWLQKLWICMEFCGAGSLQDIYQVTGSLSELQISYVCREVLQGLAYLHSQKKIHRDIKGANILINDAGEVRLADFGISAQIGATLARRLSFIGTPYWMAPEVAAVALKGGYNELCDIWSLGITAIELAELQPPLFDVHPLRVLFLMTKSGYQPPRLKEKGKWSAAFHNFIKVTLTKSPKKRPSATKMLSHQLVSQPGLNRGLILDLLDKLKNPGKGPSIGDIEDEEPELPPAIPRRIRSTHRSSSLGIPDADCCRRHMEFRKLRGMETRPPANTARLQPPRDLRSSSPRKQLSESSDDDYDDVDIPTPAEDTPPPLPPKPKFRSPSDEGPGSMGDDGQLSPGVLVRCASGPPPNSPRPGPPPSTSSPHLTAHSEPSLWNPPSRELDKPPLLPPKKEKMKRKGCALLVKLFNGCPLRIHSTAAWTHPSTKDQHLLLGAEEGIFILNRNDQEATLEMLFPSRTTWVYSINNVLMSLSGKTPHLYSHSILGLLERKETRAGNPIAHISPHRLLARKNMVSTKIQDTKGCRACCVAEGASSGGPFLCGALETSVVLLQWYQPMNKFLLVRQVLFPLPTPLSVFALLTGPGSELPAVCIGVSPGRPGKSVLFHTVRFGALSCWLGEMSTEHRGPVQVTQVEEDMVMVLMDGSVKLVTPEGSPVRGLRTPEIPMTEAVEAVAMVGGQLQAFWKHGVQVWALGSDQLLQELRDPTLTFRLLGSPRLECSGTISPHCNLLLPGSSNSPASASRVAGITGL
IC50 ([1]; class designation) [nM],IC50 ([1]; numeric value) [nM],EC50 ([2]; class designation) [nM],EC50 ([2]; numeric value) [nM],"EC50 [2, 3] [nM]","EC50 [2, 4] [nM]",Structure (SMILES)
< 0.3,0.27,< 35,33.4,,,"COCC(C)(N)c1cnc(OC2CC2)c2cnc(Nc3ccc4c(n3)[C@@H](C)[C@H](C)OC4=O)cc12 (single isomer, unassigned) [Compound 184, (7S,8R)-2-((5-((R)-2-Amino-1-methoxypropan-2-yl)-8-cyclopropoxy-2,7-naphthyridin-3-yl)amino)-7,8-dimethyl-7,8-dihydro-5H-pyrano[4,3-b]pyridin-5-one or (7S,8R)-2-((5-((S)-2-amino-1-methoxypropan-2-yl)-8-cyclopropoxy-2,7-naphthyridin-3-yl)amino)-7,8-dimethyl-7,8-dihydro-5H-pyrano[4,3-b]pyridin-5-one]"
,0.36,,,> 55,108,"COc1ncc(C(C)(C)N)c2cc(Nc3ccnc(C(C)(C)C)n3)ncc12 [Compound 3, 5-(2-Aminopropan-2-yl)-N-(2-(tert-butyl)pyrimidin-4-yl)-8-methoxy-2,7-naphthyridin-3-amine]"
0.31 to 1,0.37,,,35.1 to 45,37.1,"COc1ccc(C(C)(C)N)c2cc(Nc3ccnc(C(C)(C)F)n3)ncc12 [Compound 5, 5-(2-Aminopropan-2-yl)-N-(2-(2-fluoropropan-2-yl)pyrimidin-4-yl)-8-methoxyisoquinolin-3-amine]"
0.31 to 1,0.91,,,< 35,21.7,COc1ncc(C(C)(C)N)c2cc(Nc3ccnc(C(C)(C)F)n3)ncc12 [Compound 7]
0.31 to 1,0.33,,,< 35,10.9,COc1ncc(C(C)(C)N)c2cc(Nc3ccc4c(n3)CCNC4=O)ncc12 [Compound 11]
0.31 to 1,0.31,,,< 35,11,COc1ncc(C(C)(C)N)c2cc(Nc3ccc4c(n3)CCOC4=O)ncc12 [Compound 12]
0.31 to 1,0.64,45.1 to 55,51,,,CC[C@H](C)n1nc(Nc2cc3c(C(C)(C)N)cnc(OC)c3cn2)ccc1=O [Compound 14]
0.31 to 1,,,,< 35,30.9,CC[C@@H](C)n1nc(Nc2cc3c(C(C)(C)N)cnc(OC)c3cn2)ccc1=O [Compound 15]
< 0.3,0.3,< 35,27.3,,,CC[C@H](C)c1nc(Nc2cc3c(C(C)(C)N)cnc(OC)c3cn2)ccc1C#N [Compound 19]
0.31 to 1,0.73,45.1 to 55,51.1,,,CC[C@H](C)c1nc(Nc2cc3c(C(C)(C)N)cnc(OC)c3cn2)cnc1C#N [Compound 20]
0.31 to 1,0.85,45.1 to 55,48.7,,,CC[C@@H](C)c1nc(Nc2cc3c(C(C)(C)N)cnc(OC)c3cn2)cnc1C#N [Compound 21]
0.31 to 1,0.55,,,< 35,14,COc1ncc(C(C)(C)N)c2cc(Nc3ccc4c(n3)C(C)(C)OC4=O)ncc12 [Compound 26]
0.31 to 1,0.67,,,< 35,31.4,COc1ncc(C(C)(C)N)c2cc(Nc3ccc(C#N)c(C(C)(C)F)n3)ncc12 [Compound 28]
< 0.3,0.13,,,< 35,9.3,COc1ncc(C(C)(C)N)c2cc(Nc3ccc4c(n3)CC3(CC3)OC4=O)ncc12 [Compound 33]
< 0.3,0.24,,,35.1 to 45,45.6,"COc1ncc(C(C)(C)N)c2cc(Nc3ccc4c(n3)CC(C)(C)CC4=O)ncc12 [Compound 34, 2-((5-(2-Aminopropan-2-yl)-8-methoxy-2,7-naphthyridin-3-yl)amino)-7,7-dimethyl-7,8-dihydroquinolin-5 (6H)-one]"
0.31 to 1,0.41,< 35,23.5,,,CNc1ncc(C(C)(C)N)c2cc(Nc3ccc4c(n3)CC(C)(C)OC4=O)ncc12 [Compound 35]
< 0.3,0.17,,,< 35,15.3,COc1ncc(C(C)(C)N)c2cc(Nc3ccc4c(n3)CC(C)(C)OC4=O)ncc12 [Compound 36]
< 0.3,0.14,,,< 35,1.9,COc1ncc(C(C)(C)N)c2cc(Nc3ccc4c(n3)[C@@H](C)[C@H](C)OC4=O)ncc12 [Compound 37]

IC50 ([1]; class designation) [nM],IC50 ([1]; numeric value) [nM],EC50 ([2]; class designation) [nM],EC50 ([2]; numeric value) [nM],"EC50 [2, 3] [nM]","EC50 [2, 4] [nM]",Structure (SMILES)
< 0.3,0.2,,,< 35,5.8,COc1ncc(C(C)(C)N)c2cc(Nc3ccc4c(n3)[C@H](C)[C@@H](C)OC4=O)ncc12 [Compound 38]
0.31 to 1,1.03,,,> 55,70.3,CCOc1ncc(C(C)(C)N)c2cc(Nc3ccc4c(n3)C(C)(C)OC4=O)ncc12 [Compound 45]
0.31 to 1,0.94,,,< 35,34.3,"COc1cnc(C(C)(C)N)c2cc(Nc3ccc4c(n3)CC(C)(C)OC4=O)ncc12 [Compound 46, 2-((5-(2-Aminopropan-2-yl)-8-methoxy-2,6-naphthyridin-3-yl)amino)-7,7-dimethyl-7,8-dihydro-5H-pyrano[4,3-b]pyridin-5-one]"
1.1 to 10,1.72,,,> 55,136,CNc1ncc(C(C)(C)N)c2cc(Nc3cnc(C#N)c(N4CCC[C@@H]4C)n3)ncc12 [Compound 48]
0.31 to 1,0.36,,,< 35,17.2,CCNc1ncc(C(C)(C)N)c2cc(Nc3ccc4c(n3)CC(C)(C)OC4=O)ncc12 [Compound 53]
< 0.3,0.25,,,< 35,9.3,CCOc1ncc(C(C)(C)N)c2cc(Nc3ccc4c(n3)CC(C)(C)OC4=O)ncc12 [Compound 54]
< 0.3,0.18,,,< 35,11.6,COc1ncc(C(C)(C)N)c2cc(Nc3ccc4c(n3)[C@H](C)C(C)(C)OC4=O)ncc12 [Compound 55]
< 0.3,0.1,,,< 35,6.6,COc1ncc(C(C)(C)N)c2cc(Nc3ccc4c(n3)[C@@H](C)C(C)(C)OC4=O)ncc12 [Compound 56]
< 0.3,0.16,,,< 35,5.1,CCOc1ncc(C(C)(C)N)c2cc(Nc3ccc4c(n3)[C@@H](C)[C@H](C)OC4=O)ncc12 [Compound 57]
0.31 to 1,0.39,,,< 35,20.4,CCOc1ncc(C(C)(C)N)c2cc(Nc3ccc4c(n3)[C@H](C)[C@@H](C)OC4=O)ncc12 [Compound 58]
0.31 to 1,0.44,,,35.1 to 45,42.9,CC1(C)Cc2nc(Nc3cc4c(C(C)(C)N)cnc(OC5CC5)c4cn3)ccc2C(=O)O1 [Compound 64]
< 0.3,0.18,,,< 35,8.1,"C[C@@H]1OC(=O)c2ccc(Nc3cc4c(C(C)(C)N)cnc(OC5CC5)c4cn3)nc2[C@H]1C [Compound 66, (7S, 8R)-2-((5-(2-aminopropan-2-yl)-8-cyclopropoxy-2,7-naphthyridin-3-yl)amino)-7,8-dimethyl-7,8-dihydro-5H-pyrano[4,3-b]pyridin-5-one]"
< 0.3,0.12,,,< 35,6.2,CCOc1ncc(C(C)(C)N)c2cc(Nc3ccc4c(n3)[C@@H](C)C(C)(C)OC4=O)ncc12 [Compound 67]
< 0.3,0.27,,,< 35,29.5,CCOc1ncc(C(C)(C)N)c2cc(Nc3ccc4c(n3)[C@H](C)C(C)(C)OC4=O)ncc12 [Compound 68]
0.31 to 1,0.88,,,45.1 to 55,52.8,CC(C)Oc1ncc(C(C)(C)N)c2cc(Nc3ccc4c(n3)CC(C)(C)OC4=O)ncc12 [Compound 69]
0.31 to 1,0.35,,,< 35,20.6,C[C@H]1c2nc(Nc3cc4c(C(C)(C)N)cnc(OC5CC5)c4cn3)ccc2C(=O)OC1(C)C [Compound 70]
< 0.3,0.11,,,< 35,7.9,C[C@@H]1c2nc(Nc3cc4c(C(C)(C)N)cnc(OC5CC5)c4cn3)ccc2C(=O)OC1(C)C [Compound 71]

Structure (SMILES),IC50 ([1]; class designation) [nM],IC50 ([1]; numeric value) [nM],EC50 ([2]; class designation) [nM],EC50 ([2]; numeric value) [nM],"EC50 [2, 3] [nM]","EC50 [2, 4] [nM]"
"CC1(C)Cc2nc(Nc3cc4c(C(C)(C)N)cnc(OC5CCC5)c4cn3)ccc2C(=O)O1 [Compound 72, 2-((5-(2-Aminopropan-2-yl)-8-cyclobutoxy-2,7-naphthyridin-3-yl)amino)-7,7-dimethyl-7,8-dihydro-5H-pyrano[4,3-b]pyridin-5-one]",0.31 to 1,,,,35.1 to 45,35.5
